# Measurements from publication PMC4187030, “Effect of cyclodextrin complexation on phenylpropanoids’ solubility and antioxidant activity” (Beilstein Journal of Organic Chemistry, 2014).
# Where two headings read alike, the source gives them in different places.
# Tests used:
# [1] = Phase solubility studies, β-CD
# Experimental: (§1) Phase solubility studies were carried out according to the method described by Higuchi and Connors. Excess amount of PP was added to 1 mL of CD solution at different concentrations ranging from 0 to 10 mM. The mixtures were shaken at 25 °C for 24 h then filtered through a 0.45 μm membrane filter. The concentration of PP in the filtrate was determined spectrophotometrically at the maximum wavelength corresponding to each PP. Phase solubility diagrams were obtained by plotting the solubility of PP as a function of CD concentration. Kf value of CD/PP inclusion complex was calculated from the linear segment of the phase–solubility diagrams using the following equation: […]
# (§2) where S0 is the intrinsic solubility of PP in the absence of CD and the Slope is the slope of the phase–solubility profile. The solubilizing potential of CD was evaluated by the complexation efficiency (CE) parameter. CE equal the complex to free CD concentration ratio and was calculated from the slope of the phase solubility diagram: […]
# (§3) where [CD/PP] is the concentration of dissolved inclusion complex and [CD] is the concentration of dissolved free CD. The CE can be used to calculate the PP:CD ratio as follows:
# (§4) The correlation between the CE and the molecular weight of CD or guest allowed the determination of the increase in formulation bulk which can be calculated using the following equation: […]
# (§5) where MWCD and MWPP are the molecular weight values of CD and PP, respectively.
# [2] = RAMEB, cited from earlier work
# [3] = α-CD; ref 24; cited from earlier work
# [4] = Phase solubility studies, HP-β-CD
# Experimental: as §1, §2, §3, §4, §5
# [5] = HP-β-CD, cited from earlier work
# [6] = Formation constants (Kf) by UV–visible spectral displacement method, α-CD; format: physicochemical; settings: UV–visible spectral displacement with MO (MO itself by direct titration), SD <10%
# Experimental: (§6) Formation constant (Kf) values were calculated using a UV–visible spectral displacement method. This method implies first the characterization of the inclusion complexes between CDs and the competitor (methyl orange, MO). The results are summarized in Table 1 in comparison with values from the literature.
# (§7) The UV–visible competition method with methyl orange (MO) as competitor was carried out according to the method described by Landy et al.. In order to calculate CD/PP Kf values, CD/MO inclusion complexes were firstly characterized by a direct titration method. Then, a spectral displacement method was applied by adding PP to a solution containing constant concentration of MO and CD. The addition of PP implied an absorbance increment leading to the calculation of CD/PP Kf values. Spectra were recorded between 520–530 nm for a MO concentration fixed at 0.1 mM. This wavelength range corresponds to the optimal spectral variation between the absorbance of free and complexed forms of MO. All Kf values were calculated by an algorithmic treatment applied to the first derivatives of UV spectra in order to avoid any spectral influence of diffraction phenomena. Absorption studies were performed using a UV–visible dual-beam spectrophotometer (Perkin Elmer Lambda 2S) with a 1 cm thick quartz cuvette.
# [7] = DPPH radical scavenging activity; settings: for Change of DPPH radical scavenging activity upon complexation with CDs: PP in 10 mM CD solution vs water; for Kinetic behavior of reaction with DPPH•: PP with ethanolic DPPH• solution; for DPPH radical scavenging (antioxidant) activity of PP alone: absence of CD, 1 h (3, 4, 6, 7) or 15 h (1, 2, 5), 25 °C
# Experimental: The 2,2-diphenyl-1-picrylhydrazyl (DPPH) radical scavenging activity of PP and their inclusion complexes was measured using the method described by Brand-Williams, Cuvelier, and Berset (1995) with some modifications. 1 mg of PP was dissolved in 50 mL of water, or 10 mM CD solution. 2 mL aliquot of the solution was vigorously mixed with 2 mL of ethanolic DPPH^• solution (0.1 mM). […]. Blank sample was prepared by mixing 2 mL of distilled water with 2 mL of DPPH^• solution. The scavenging activity was calculated using the following equation: […]
# where As and A0 are the absorbance of sample and blank sample, respectively.
# [8] = CRYSMEB, cited from earlier work
# [9] = Intrinsic solubility (S0) of PP in water; format: physicochemical; settings: thermodynamic from solid, absence of CD, 25 °C
# Experimental: as §1, §2
# [10] = Formation constants (Kf) by UV–visible spectral displacement method, HP-β-CD; format: physicochemical; settings: UV–visible spectral displacement with MO (MO itself by direct titration), SD <10%
# Experimental: as §6, §7
# [11] = set-up: method as in earlier work; settings: cited from earlier work
# [12] = β-CD, cited from earlier work
# [13] = Experimental: as §1, §2, §3, §4, §5
# [14] = Phase solubility studies, RAMEB; settings: for Increase in formulation bulk / CE (complexation efficiency) / Kf: RAMEB; for Increase in formulation bulk: from CE and molecular weights; for CE (complexation efficiency): from slope of phase solubility diagram; for Kf: from slope of phase solubility diagram and S0, 25 °C; for St/S0 (solubility enhancement ratio): guest solubility in 10 mM RAMEB solution vs water
# Experimental: as §1, §2, §3, §4, §5
# [15] = Phase solubility studies, CRYSMEB
# Experimental: as §1, §2, §3, §4, §5
# [16] = Formation constants (Kf) by UV–visible spectral displacement method, CRYSMEB; format: physicochemical; settings: UV–visible spectral displacement with MO (MO itself by direct titration), SD <10%
# Experimental: as §6, §7
# [17] = Formation constants (Kf) by UV–visible spectral displacement method, RAMEB; format: physicochemical; settings: UV–visible spectral displacement with MO (MO itself by direct titration), SD <10%
# Experimental: as §6, §7
# [18] = Formation constants (Kf) by UV–visible spectral displacement method, β-CD; format: physicochemical; settings: UV–visible spectral displacement with MO (MO itself by direct titration), SD <10%
# Experimental: as §6, §7
smiles,measurement,setting,value
"C=CCc1ccc(O)c(OC)c1 [Eugenol (4), eugenol]",CE (complexation efficiency),[1],3.25
same,Increase in formulation bulk,[1],9
same,Kf,[1],513 M⁻¹
same,Molar ratio (PP:CD),[1],1:1.31
same,Formation constant (Kf),[2]; ref 21,521 M⁻¹
same,Formation constant (Kf),[2]; ref 24,568 M⁻¹
same,Formation constant (Kf),[3],94 M⁻¹
same,CE (complexation efficiency),[4],2.81
same,Increase in formulation bulk,[4],12
same,Kf,[4],445 M⁻¹
same,Molar ratio (PP:CD),[4],1:1.36
same,Formation constant (Kf),[5]; ref 21,445 M⁻¹
same,Formation constant (Kf),[5]; ref 24,462 M⁻¹
same,Formation constant (Kf),[6],350 M⁻¹
same,Change of DPPH radical scavenging activity upon complexation with CDs,[7],kept unchanged
same,Kinetic behavior of reaction with DPPH•,[7],reacted rapidly
same,DPPH radical scavenging (antioxidant) activity of PP alone,[7],higher antioxidant activity
same,Formation constant (Kf),[8]; ref 21,401 M⁻¹
same,Formation constant (Kf),[8]; ref 24,454 M⁻¹
same,solubility at 24 h,[9],1040 µg/mL
same,Formation constant (Kf),[10],436 M⁻¹
same,log P,[11],2.100
same,Formation constant (Kf),[12]; ref 21,322 M⁻¹
same,Formation constant (Kf),[12]; ref 24,264 M⁻¹
same,Formation constant (Kf),[12]; ref 25,357 M⁻¹
same,CE (complexation efficiency),[13],1.56
same,Increase in formulation bulk,[13],10
same,Kf,[13],246 M⁻¹
same,Molar ratio (PP:CD),[13],1:1.64
same,Increase in formulation bulk,[14],11
same,CE (complexation efficiency),[14],3.48
same,Kf,[14],550 M⁻¹
same,St/S0 (solubility enhancement ratio),[14],2.2
same,CE (complexation efficiency),[15],2.78
same,Increase in formulation bulk,[15],10
same,Kf,[15],440 M⁻¹
same,Molar ratio (PP:CD),[15],1:1.36
"O=C(O)/C=C/c1ccc(O)cc1 [p-Coumaric acid (5), p-coumaric acid]",St/S0 (solubility enhancement ratio),[1]; guest solubility in 10 mM β-CD solution vs water,2.8
same,Increase in formulation bulk,"[1]; β-CD, from CE and molecular weights",18
same,CE (complexation efficiency),"[1]; β-CD, from slope of phase solubility diagram",0.64
same,Kf,"[1]; β-CD, from slope of phase solubility diagram and S0, 25 °C (linear portion for 1 and 2)",306 M⁻¹
same,Increase in formulation bulk,"[4]; HP-β-CD, from CE and molecular weights",13
same,CE (complexation efficiency),"[4]; HP-β-CD, from slope of phase solubility diagram",2.30
same,Kf,"[4]; HP-β-CD, from slope of phase solubility diagram and S0, 25 °C",1099 M⁻¹
same,St/S0 (solubility enhancement ratio),[4]; guest solubility in 10 mM HP-β-CD solution vs water,4.4
same,Formation constant (Kf),[6],1816 M⁻¹
same,Change of DPPH radical scavenging activity upon complexation with CDs,[7],kept unchanged
same,Kinetic behavior of reaction with DPPH•,[7],slow kinetic behavior
same,DPPH radical scavenging (antioxidant) activity of PP alone,[7],higher antioxidant activity
same,Formation constant (Kf),[16],668 M⁻¹
same,solubility at 24 h,[9],344 µg/mL
same,Formation constant (Kf),[10],787 M⁻¹
same,log P,[11],1.43
same,Formation constant (Kf),[17],1030 M⁻¹
same,CE (complexation efficiency),[13],4.17
same,Increase in formulation bulk,[13],7
same,Kf,[13],1988 M⁻¹
same,Molar ratio (PP:CD),[13],1:1.24
same,Increase in formulation bulk,[14],11
same,CE (complexation efficiency),[14],2.57
same,Kf,[14],1228 M⁻¹
same,St/S0 (solubility enhancement ratio),[14],4.4
same,Increase in formulation bulk,"[15]; CRYSMEB, from CE and molecular weights",11
same,CE (complexation efficiency),"[15]; CRYSMEB, from slope of phase solubility diagram",1.89
same,Kf,"[15]; CRYSMEB, from slope of phase solubility diagram and S0, 25 °C",900 M⁻¹
same,St/S0 (solubility enhancement ratio),[15]; guest solubility in 10 mM CRYSMEB solution vs water,4
same,Formation constant (Kf),[18],338 M⁻¹
